In patent US12324809B2, “Fluoro beta-carboline compounds” (OSSIFI THERAPEUTICS LLC, priority 2018, dated 2025):

Columns and labels:
[1] = system: MC3T3-E1 (mouse calvarial) osteoblast cells; experiment: Bone formation assay: rescue of sclerostin inhibition of mineralization (calcium concentration); format: cell-based; design: key to Sclerostin Inhibition of Mineralization; improvement over sclerostin alone: − indicates no improvement over sclerostin protein alone; + indicates an IC100 >10 μM; ++ indicates an IC100 <10 μM; conditions: for IC100: Mus musculus, MC3T3-E1, IC100 class, read-out: Sclerostin Inhibition of Mineralization, improvement over sclerostin alone; for Sclerostin Inhibition of Mineralization; improvement over sclerostin alone: IC100 class
Description: Mineralization (crystalline calcium phosphate formation) represents an in vitro model of bone formation. Using an assay in which the amount of mineralization is quantified by measuring total calcium after solubilization of deposited crystalline calcium phosphate, sclerostin was previously shown to inhibit mineralization in MC3T3-E1 (mouse calvarial) osteoblast cells. Li et al., J Bone Miner Res 24:578-588 (2008). Following the protocol described in Li et al., Compounds were assayed for their ability to rescue the inhibition of mineralization by sclerostin in MC3T3 osteoblast cells. […] Addition of a compound of Examples 1-14 neutralized sclerostin-mediated inhibition of mineralization, as reflected by the increase in calcium concentration.

[2] = Metabolic stability in pooled human liver microsomes; format: in vitro ADME; conditions: 0.1 μM compound, human liver microsomes 0.1 mg/mL, NADPH, 37 °C, 60 minutes
Description: Compounds of the present invention (0.1 μM) were incubated with microsomes at 37 °C for a total of 60 minutes. The reaction contained pooled human liver microsomal protein (0.1 mg/mL) in potassium phosphate buffer with NADPH. At the indicated time points (0, 5, 15, 30 and 60 minutes). Samples were analyzed by LC/MS/MS and remaining parent drug was calculated using Microsoft Excel (2007). Obach R S, Drug Metab Dispos. 27(11):1350-1359 (1999).

sclerostin = target: T1, sclerostin (Homo sapiens, UniProt Q9BQB4); experiment: Modulation of sclerostin/Wnt activity: restoring Wnt3a signaling in the presence of sclerostin; format: cell-based; design: key to Sclerostin Inhibition Assay; improvement over sclerostin alone: − indicates no improvement over sclerostin protein alone; + indicates an IC100 >10 μM; ++ indicates an IC100 <10 μM; conditions: for Sclerostin Inhibition Assay; improvement over sclerostin alone: IC100 class, Wnt3a signaling in human embryonic cells in presence of sclerostin
T1 construct: host or cells: human embryonic cells (the assay cells)
T1 sequence (Q9BQB4 24-213): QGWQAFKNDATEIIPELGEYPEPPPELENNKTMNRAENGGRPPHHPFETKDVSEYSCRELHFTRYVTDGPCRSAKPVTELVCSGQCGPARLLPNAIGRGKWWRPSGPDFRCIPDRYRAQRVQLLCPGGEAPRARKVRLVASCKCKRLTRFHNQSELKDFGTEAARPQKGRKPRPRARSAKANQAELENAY
Description: Compounds synthesized in accordance with the methods of Examples 1-14 were assayed for their ability to restore Wnt signaling in the presence of sclerostin consistent with a known sclerostin antagonist, sclerostin Mab. See, Ellies et al., J Bone Miner Res 21:1738-1749 (2006). […] The addition of a known sclerostin antagonist inhibited sclerostin inhibition of Wnt3a signaling, thus restoring Wnt3a signaling in the cell (IC100 at 10 μM) (data not shown).

Metabolic Stability [2]	Sclerostin Inhibition Assay; improvement over sclerostin alone (sclerostin)	Effect of sclerostin on Wnt3a signaling (in words) (sclerostin; human embryonic cells)	Compound	IC100 [1] [µM]	Sclerostin Inhibition of Mineralization; improvement over sclerostin alone [1]	Effect of sclerostin treatment alone on mineralization (in words) [1]
++ (++ indicates a stability >1x)	+ (+ indicates an IC100 >10 μM)		COc1ccc2c3ccnc(C(F)(F)F)c3n(CCN3CCOCC3)c2c1F.Cl [Example 1, 4-(2-(8-Fluoro-7-methoxy-1-(trifluoromethyl)-9H-pyrido[3,4-b]indol-9-yl)ethyl)morpholine Hydrochloride Salt]	> 10		
++ (++ indicates a stability >1x)	++ (++ indicates an IC100 <10 μM)		COc1cc2c(cc1F)c1ccnc(C(F)(F)F)c1n2CCN1CCOCC1.Cl [Example 2, 4-(2-(6-fluoro-7-methoxy-1-(trifluoromethyl)-9H-pyrido[3,4-b]indol-9-yl)ethyl)morpholine Hydrochloride Salt]	< 10		
++ (++ indicates a stability >1x)	++ (++ indicates an IC100 <10 μM)		COc1cc2c(cc1F)c1ccnc(C(F)(F)F)c1n2CCN1CCC(OC)CC1.Cl [Example 3, 6-Fluoro-7-methoxy-9-(2-(4-methoxypiperidin-1-yl)ethyl)-1-(trifluoromethyl)-9H-pyrido[3,4-b]indole Hydrochloride Salt]	< 10		
++ (++ indicates a stability >1x)	+ (+ indicates an IC100 >10 μM)		COc1cc2c(cc1F)c1ccnc(C(F)(F)F)c1n2CCN1CCN(C)C(=O)C1.Cl [Example 4, 4-(2-(6-Fluoro-7-methoxy-1-(trifluoromethyl)-9H-pyrido[3,4-b]indol-9-yl)ethyl)-1-methylpiperazin-2-one Hydrochloride Salt]	> 10		
++ (++ indicates a stability >1x)	++ (++ indicates an IC100 <10 μM)		COc1cc2c(cc1F)c1ccnc(C(F)(F)F)c1n2CCN1CC(OC(F)F)C1.Cl [Example 5, 9-(2-(3-(Difluoromethoxy)azetidin-1-yl)ethyl)-6-fluoro-7-methoxy-1-(trifluoromethyl)-9H-pyrido[3,4-b]indole Hydrochloride Salt]	< 10		
++ (++ indicates a stability >1x)	++ (++ indicates an IC100 <10 μM)		COc1cc2c(cc1F)c1ccnc(C(F)(F)F)c1n2CCN1CC2CCC(C1)O2.Cl [Example 6, 3-(2-(6-Fluoro-7-methoxy-1-(trifluoromethyl)-9H-pyrido[3,4-b]indol-9-yl)ethyl)-8-oxa-3-azabicyclo[3.2.1]octane Hydrochloride Salt]	< 10		
+ (+ indicates a stability of <1x)	++ (++ indicates an IC100 <10 μM)		COc1cc2c(cc1F)c1ccnc(C(F)(F)F)c1n2CCN1CC2CC1CO2.Cl (stereo not shown) [Example 8, 5-(2-(6-Fluoro-7-methoxy-1-(trifluoromethyl)-9H-pyrido[3,4-b]indol-9-yl)ethyl)-2-oxa-5-azabicyclo[2.2.1]heptane Hydrochloride Salt]	< 10		
+ (+ indicates a stability of <1x)	++ (++ indicates an IC100 <10 μM)		COc1cc2c(cc1F)c1ccnc(C(F)(F)F)c1n2CCN1CC(OC)C(OC)C1.Cl (stereo not shown) [Example 9, 9-(2-(3,4-Dimethoxypyrrolidin-1-yl)ethyl)-6-fluoro-7-methoxy-1-(trifluoromethyl)-9H-pyrido[3,4-b]indole Hydrochloride Salt]	< 10		
++ (++ indicates a stability >1x)	++ (++ indicates an IC100 <10 μM)		COc1cc2c(cc1F)c1ccnc(C(F)(F)F)c1n2CCN1CCC(OC)C1.Cl (stereo not shown) [Example 10, 6-Fluoro-7-methoxy-9-(2-(3-methoxypyrrolidin-1-yl)ethyl)-1-(trifluoromethyl)-9H-pyrido[3,4-b]indole Hydrochloride Salt]	< 10		
++ (++ indicates a stability >1x)	++ (++ indicates an IC100 <10 μM)		COc1cc2c(cc1F)c1ccnc(C(F)(F)F)c1n2CCN1CC2COCC2C1.Cl (stereo not shown) [Example 11, 5-(2-(6-Fluoro-7-methoxy-1-(trifluoromethyl)-9H-pyrido[3,4-b]indol-9-yl)ethyl)hexahydro-1H-furo[3,4-c]pyrrole Hydrochloride Salt]	< 10		
++ (++ indicates a stability >1x)	−		COc1cc2c(cc1F)c1ccnc(C(F)(F)F)c1n2CCN1CCC(F)(F)CC1.Cl [Example 12, 9-(2-(4,4-Difluoropiperidin-1-yl)ethyl)-6-fluoro-7-methoxy-1-(trifluoromethyl)-9H-pyrido[3,4-b]indole Hydrochloride Salt]		−	
++ (++ indicates a stability >1x)	−		COc1cc2c(cc1F)c1ccnc(C(F)(F)F)c1n2CCn1cncn1.Cl [Example 13, 9-(2-(1H-1,2,4-Triazol-1-yl)ethyl)-6-fluoro-7-methoxy-1-(trifluoromethyl)-9H-pyrido[3,4-b]indole Hydrochloride Salt]		−	
+ (+ indicates a stability of <1x)	++ (++ indicates an IC100 <10 μM)		COc1c(F)cc2c3ccnc(C(F)(F)F)c3n(CCN3CCOCC3)c2c1F.Cl [Example 14, 4-(2-(6,8-Difluoro-7-methoxy-1-(trifluoromethyl)-9H-pyrido[3,4-b]indol-9-yl)ethyl)morpholine Hydrochloride Salt]	< 10		
	−	antagonized Wnt3a signaling	Sclerostin protein: protein that antagonizes Wnt3a signaling and inhibits mineralization; the assay's inhibitor and baseline		−	significant decrease in mineralization

Compound	Metabolic Stability [2]	Sclerostin Inhibition Assay; improvement over sclerostin alone (sclerostin)	Effect of sclerostin on Wnt3a signaling (in words) (sclerostin; human embryonic cells)	IC100 [1] [µM]	Sclerostin Inhibition of Mineralization; improvement over sclerostin alone [1]	Effect of sclerostin treatment alone on mineralization (in words) [1]
COc1cc2c(cc1F)c1ccnc(C(F)(F)F)c1n2CCN1C2CCC1COC2.Cl [Example 7, 8-(2-(6-Fluoro-7-methoxy-1-(trifluoromethyl)-9H-pyrido[3,4-b]indol-9-yl)ethyl)-3-oxa-8-azabicyclo[3.2.1]octane Hydrochloride Salt]	+ (+ indicates a stability of <1x)	++ (++ indicates an IC100 <10 μM)		< 10		
